Earlier results on 1 compound are cited in patent US9555001B2, “Pharmaceutical composition and uses thereof” (Boehringer Ingelheim International GmbH, priority 2012, dated 2017).

For this data set the following is noted: crystalline form described in WO 2006/117359.

In the case of `OC[C@H]1O[C@@H](c2ccc(Cl)c(Cc3ccc(O[C@H]4CCOC4)cc3)c2)[C@H](O)[C@@H](O)[C@@H]1O` [Compound “A”, 1-chloro-4-(β-D-glucopyranos-1-yl)-2-[4-((S)-tetrahydrofuran-3-yloxy)-benzyl]-benzene], the physico-chemical stability result is “physico-chemically stable” and the solubility entry was “good solubility properties”.
